Experimental data as given in patent US9120795B2, “Crystalline form of a β-lactamase inhibitor” (Cubist Pharmaceuticals, Inc., priority 2013, dated 2015).

Test: Solid form stability at ambient conditions, XRPD
Assay type: physicochemical
Settings: sulfate; for transformation of the form at ambient conditions: storage at ambient conditions
Method: X-Ray Powder Diffraction patterns were collected on a Bruker D8 diffractometer using Cu Kα radiation (40 kV, 40 mA), 0-20 goniometer, and divergence of V4 and receiving slits, a Ge monochromator and a Lynxeye detector. The instrument is performance checked using a certified Corundum standard (NIST 1976). The software used for data collection was Diffrac Plus XRD Commander v2.6.1 and the data were analysed and presented using Diffrac Plus EVA v13.0.0.2 or v15.0.0.0. Samples were run under ambient conditions as flat plate specimens using powder as received. The sample was gently packed into a cavity cut into polished, zero-background (510) silicon wafer. The sample was rotated in its own plane during analysis. The details of the data collection are: angular range: 2 to 42 °2θ; step size: 0.05 °2θ; collection time: 0.5 s/step. Amorphous material (˜60 mg) was generated as in Procedure 1. The amorphous material was suspended in different solvent systems (3 mL) at 50° C. A sample was withdrawn after 3 h and 24 h. The final product was filtered after 48 h and analysed by XRPD. The solids isolated were re-analysed again by XRPD after few days at ambient conditions (˜25° C. and ˜40% RH).

Row | Compound | stability of the form (Summary of Forms, Description) | transformation of the form at ambient conditions
1 | O=C1N2C[C@@H](CC[C@H]2c2nnco2)N1OS(=O)(=O)[O-].[Na+] [Hydrate 2, sodium (2S,5R)-2-(1,3,4-oxadiazol-2-yl)-7-oxo-1,6-diazabicyclo[3.2.1]octan-6-yl sulfate] | Metastable, hexa-hydrate | 
2 | O=C1N2C[C@@H](CC[C@H]2c2nnco2)N1OS(=O)(=O)[O-].[Na+] [Hydrate 4, sodium (2S,5R)-2-(1,3,4-oxadiazol-2-yl)-7-oxo-1,6-diazabicyclo[3.2.1]octan-6-yl sulfate] | Metastable, suspected hemi-hydrate | metastable and transforms to Hydrate 1
3 | O=C1N2C[C@@H](CC[C@H]2c2nnco2)N1OS(=O)(=O)[O-].[Na+] [Hydrate 3, sodium (2S,5R)-2-(1,3,4-oxadiazol-2-yl)-7-oxo-1,6-diazabicyclo[3.2.1]octan-6-yl sulfate] | Metastable, suspected mono-hydrate | metastable and transform to Hydrate 5 or Hydrate 1
4 | O=C1N2C[C@@H](CC[C@H]2c2nnco2)N1OS(=O)(=O)[O-].[Na+] [Hydrate 6, sodium (2S,5R)-2-(1,3,4-oxadiazol-2-yl)-7-oxo-1,6-diazabicyclo[3.2.1]octan-6-yl sulfate] | Metastable, suspected mono-hydrate, | metastable and transform to Hydrate 5 or Hydrate 1
5 | O=C1N2C[C@@H](CC[C@H]2c2nnco2)N1OS(=O)(=O)[O-].[Na+] [Hydrate 7, sodium (2S,5R)-2-(1,3,4-oxadiazol-2-yl)-7-oxo-1,6-diazabicyclo[3.2.1]octan-6-yl sulfate] | Metastable, only isolated as a mixture | 
6 | O=C1N2C[C@@H](CC[C@H]2c2nnco2)N1OS(=O)(=O)[O-].[Na+] [Hydrate 5, sodium (2S,5R)-2-(1,3,4-oxadiazol-2-yl)-7-oxo-1,6-diazabicyclo[3.2.1]octan-6-yl sulfate] | Metastable, di-hydrate | 
